Test [1] has as its system HEK-293 (human embryonic kidney cells). The test can be described thus: Cell proliferation assay (MTT). Type of test: cell-based. As to conditions: HEK293, 48 h, 2 days incubation, average ± SD of three experiments. From the text:
(§1) The ability of Ureas 13–33 to inhibit cell proliferation was established by means of their IC50 values towards the human tumor cell lines HT-29 (colon adenocarcinoma), MCF-7 (breast adenocarcinoma), HeLa (epithelioid cervix carcinoma) and A549 (pulmonary adenocarcinoma), as well as towards the endothelial cell line HMEC-1 (human microvascular endothelial cells) and the non-tumor cell line HEK-293 (human embryonic kidney cells).
(§2) HT-29, MCF-7, HeLa, A549 and HEK-293 cell lines were maintained in Dulbecco’s modified Eagle’s medium (DMEM) containing glucose (1 g/L), glutamine (2 mM), penicillin (50 μg/mL), streptomycin (50 μg/mL), and amphotericin B (1.25 μg/mL), supplemented with 10% FBS. HMEC-1 cell line was maintained in Dulbecco’s modified Eagle’s medium (DMEM)/low glucose containing glutamine (2 mM), penicillin (50 μg/mL), streptomycin (50 μg/mL), and amphotericin B (1.25 μg/mL), supplemented with 10% FBS. For the development of tube formation assays in Matrigel, HMEC-1 cells were cultured in EGM-2MV Medium supplemented with EGM-2MV SingleQuots.
(§3) In 96-well plates, 3 × 10^3 (HeLa, A549, HMEC-1, HEK-293) or 5 × 10^3 (HT-29, MCF-7) cells per well were incubated with serial dilutions of the tested compounds in a total volume of 100 μL of their respective growth media. The 3-(4,5-dimethylthiazol-2-yl)-2,5-diphenyltetrazolium bromide (MTT; Sigma Chemical Co.) dye reduction assay in 96-well microplates was used. After 2 days of incubation (37 °C, 5% CO2 in a humid atmosphere), 10 μL of MTT (5 mg/mL in phosphate-buffered saline, PBS) was added to each well, and the plate was incubated for a further 3 h (37 °C). After that, the supernatant was discarded and replaced by 100 µL of DMSO to dissolve formazan crystals. The absorbance was then read at 540 nm by spectrophotometry. For all concentrations of compound, cell viability was expressed as the percentage of the ratio between the mean absorbance of treated cells and the mean absorbance of untreated cells. Three independent experiments were performed, and the IC50 values (i.e., concentration half inhibiting cell proliferation) were graphically determined using GraphPad Prism 4 software.

In test [2] the test system is MCF-7 (breast adenocarcinoma). Description: Cell proliferation assay (MTT). Type of test: cell-based. The conditions noted are these: Homo sapiens, MCF7, 48 h, 2 days incubation, average ± SD of three experiments.
From the text: as §1, §2, §3

Test [3] deals with HMEC-1 (human microvascular endothelial cells). Description: Cell proliferation assay (MTT). Type of test: cell-based. As to conditions: HMEC-1, 48 h, 2 days incubation, average ± SD of three experiments.
From the text: as §1, §2, §3

Test [4] has as its system HT-29 (colon adenocarcinoma). The test can be described thus: Cell proliferation assay (MTT). Type of test: cell-based. The conditions noted are these: Homo sapiens, HT-29, 48 h, 2 days incubation, average ± SD of three experiments.
From the text: as §1, §2, §3

In test [5] the test system is HeLa (epithelioid cervix carcinoma). The test can be described thus: Cell proliferation assay (MTT). Format: cell-based. As to conditions: Homo sapiens, 48 h, 2 days incubation, average ± SD of three experiments.
From the text: as §1, §2, §3

In test [6] the test system is A549 (pulmonary adenocarcinoma). Description: Cell proliferation assay (MTT). As to conditions: Homo sapiens, A549, 48 h, 2 days incubation, average ± SD of three experiments. Format: cell-based.
From the text: as §1, §2, §3

The test system of test [7] is c-Myc. Description: c-Myc quantification by flow cytometry in A-549. Type of test: cell-based, human. As to conditions: A-549, 10 μM, 24 h, referred to control (DMSO). Here is the method:
(§4) We evaluated the effect of the selected compounds on PD-L1 and on c-Myc proteins by flow cytometry after 24 h treatment at 10 μM concentration of compounds. Both, PD-L1 and c-Myc were relatively determined using DMSO treated cells as a negative control and BMS-8 as a positive one.
(§5) For the detection of total PD-L1 and c-Myc, cancer cells were seeded (3 × 10^5 cells/well) in 6-well plates and were incubated with the corresponding compounds for 24 h. Then they were collected, fixed, treated with 0.5% Triton^TM X-100 and stained with Alexa Fluor® 647 Rabbit monoclonal Anti-PD-L1 (ab215251) and FITC Rabbit monoclonal anti-c-Myc (ab223913).
(§6) We also checked results performing ELISA tests. For ELISA tests, lysates were collected, protein quantification was carried out by Bradford test and, then, PD-L1 and c-Myc were quantified using Human PD-L1 ELISA Kit 28-8 (ab214565) and c-Myc (Total) Human ELISA Kit (KHO2041), respectively, according to the manufacturer’s instructions.
(In flow cytometry, cells or beads pass a laser one at a time.)

For test [8], the target named is T1, PD-L1 (Homo sapiens, UniProt Q9NZQ7). The test can be described thus: PD-L1 quantification by flow cytometry in A-549. As to conditions: A-549, 10 μM, 24 h, referred to control (DMSO). Format: cell-based. Also on record: endogenous in cells; host or cells: A-549 cancer cells. Here is the method:
as §4, §5, §6

Test [9] concerns the target T2, VEGFR-2 (Homo sapiens, UniProt P35968). Description: VEGFR-2 quantification by flow cytometry in HMEC-1. Type of test: cell-based. Also on record: Both membrane and total VEGFR-2 were relatively determined using dimethyl sulfoxide (DMSO) treated cells as a negative control; endogenous in cells; host or cells: HMEC-1 (human microvascular endothelial cells). The conditions noted are these: 10 µM, 24 h, relative to DMSO control.
Method: (§7) We performed the study on both a HT-29 cancer cell line and a human microvessel endothelial cell line (HMEC-1). […] The effect of these selected derivatives on VEGFR-2, on HT-29 tumor cell line and on human microvessel endothelial cells (HMEC) was determined by flow cytometry technique. […] For these assays, cells were incubated for 24 h in the presence of the corresponding compounds at 10 µM concentration.

Test [10] has as its system c-Myc. The test can be described thus: c-Myc quantification by flow cytometry in HT-29. Format: cell-based, human. As to conditions: HT-29, 10 μM, 24 h, referred to control (DMSO). Here is the method:
as §4, §5, §6

Test [11] concerns the target T2, VEGFR-2. Description: VEGFR-2 quantification by flow cytometry in HT-29. Type of test: cell-based. The arrangement: Both membrane and total VEGFR-2 were relatively determined using dimethyl sulfoxide (DMSO) treated cells as a negative control; endogenous in cells; host or cells: HT-29 (colon adenocarcinoma) and HMEC-1 (human microvascular endothelial cells). As to conditions: HT-29, 10 µM, 24 h, relative to DMSO control.
Method: as §7

Test [12] concerns the target T1, PD-L1. The test can be described thus: PD-L1 quantification by flow cytometry in HT-29. Format: cell-based. As to conditions: HT-29, 10 μM, 24 h, referred to control (DMSO). The procedure: as §4, §5, §6

T2 sequence (P35968 20-1356): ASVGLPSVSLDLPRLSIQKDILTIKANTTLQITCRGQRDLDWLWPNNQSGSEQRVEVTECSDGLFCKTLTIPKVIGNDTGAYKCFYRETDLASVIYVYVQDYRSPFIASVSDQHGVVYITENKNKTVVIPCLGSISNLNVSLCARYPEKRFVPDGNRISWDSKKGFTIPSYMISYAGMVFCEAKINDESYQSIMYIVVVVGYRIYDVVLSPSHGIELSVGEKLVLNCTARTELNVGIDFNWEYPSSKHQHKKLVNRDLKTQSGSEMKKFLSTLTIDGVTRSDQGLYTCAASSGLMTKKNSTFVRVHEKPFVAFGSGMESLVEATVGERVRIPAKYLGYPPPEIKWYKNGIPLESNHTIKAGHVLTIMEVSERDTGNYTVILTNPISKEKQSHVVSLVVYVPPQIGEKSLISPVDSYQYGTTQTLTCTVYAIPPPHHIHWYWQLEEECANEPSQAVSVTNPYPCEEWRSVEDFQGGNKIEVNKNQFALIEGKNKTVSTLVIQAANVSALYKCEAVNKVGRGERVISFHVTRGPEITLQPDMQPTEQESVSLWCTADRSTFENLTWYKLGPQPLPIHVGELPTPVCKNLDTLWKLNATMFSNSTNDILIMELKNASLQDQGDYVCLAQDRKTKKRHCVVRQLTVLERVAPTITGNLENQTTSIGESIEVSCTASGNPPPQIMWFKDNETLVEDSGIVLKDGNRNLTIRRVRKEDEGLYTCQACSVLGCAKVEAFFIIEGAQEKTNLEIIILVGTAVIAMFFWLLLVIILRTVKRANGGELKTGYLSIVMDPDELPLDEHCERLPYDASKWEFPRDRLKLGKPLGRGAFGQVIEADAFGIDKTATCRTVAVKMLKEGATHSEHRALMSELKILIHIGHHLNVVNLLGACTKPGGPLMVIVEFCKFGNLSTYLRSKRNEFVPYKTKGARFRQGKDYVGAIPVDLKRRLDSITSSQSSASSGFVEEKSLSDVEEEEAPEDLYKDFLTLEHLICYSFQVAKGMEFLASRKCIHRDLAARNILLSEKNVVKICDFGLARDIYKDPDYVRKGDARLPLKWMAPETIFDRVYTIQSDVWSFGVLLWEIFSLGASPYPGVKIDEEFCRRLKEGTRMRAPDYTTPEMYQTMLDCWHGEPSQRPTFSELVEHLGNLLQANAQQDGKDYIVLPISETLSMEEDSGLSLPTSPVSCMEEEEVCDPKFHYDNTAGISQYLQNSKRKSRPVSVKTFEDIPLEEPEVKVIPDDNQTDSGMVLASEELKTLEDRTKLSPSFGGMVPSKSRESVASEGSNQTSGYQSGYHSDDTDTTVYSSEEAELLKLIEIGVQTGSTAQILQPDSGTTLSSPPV
T1 sequence (Q9NZQ7 19-290): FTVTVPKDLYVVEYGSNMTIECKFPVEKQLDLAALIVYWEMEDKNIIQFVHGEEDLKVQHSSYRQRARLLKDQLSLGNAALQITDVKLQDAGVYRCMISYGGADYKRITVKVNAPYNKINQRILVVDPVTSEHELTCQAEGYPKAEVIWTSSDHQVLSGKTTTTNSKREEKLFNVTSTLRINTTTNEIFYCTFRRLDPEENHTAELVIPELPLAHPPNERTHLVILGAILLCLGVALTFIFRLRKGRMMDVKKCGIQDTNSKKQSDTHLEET

With `COc1ccc(/C=C\c2cccc(NC(=O)Nc3ccccc3)c2)cc1` [Compound 13], the IC50 (as a rule, the point on the concentration scale where inhibition reaches its midpoint) was determined as 16 ± 3 µM in test [1]; 30 ± 7 µM in test [2]; 40 ± 5 µM in [3]; 24 ± 5 µM in test [4]; 32 ± 8 µM in [5]; 34 ± 2 µM in test [6].
Consider `COc1ccc(/C=C\c2cccc(NC(=O)Nc3ccccc3Br)c2)cc1` [Compound 14], for which the IC50 was 25 ± 3 µM in test [1]; 25 ± 10 µM in test [2]; 14 ± 2 µM in test [3]; 17 ± 2 µM in test [4]; 26 ± 3 µM in [5]; 32 ± 14 µM in [6].
In the case of `COc1ccc(/C=C\c2cccc(NC(=O)Nc3ccccc3OC)c2)cc1` [Compound 17], the “c-Myc (%) relative expression” value with c-Myc [7] worked out at 45± 9%; in the test with c-Myc [10] it was 58 ± 13%. Further, the “PD-L1 (%) relative expression” value at PD-L1 [8] is recorded as 79 ± 9%; at PD-L1 [12], 60 ± 12%. Besides, the “Membrane VEGFR-2 (%)” value at VEGFR-2 [9] is given as 99 ± 7%; on VEGFR-2 [11] it was 47 ± 16%. Further, the “Total VEGFR-2 (%)” value on VEGFR-2 [9] came out at 97 ± 9%; on VEGFR-2 [11] it was 98 ± 12%. For the same compound, the IC50 in [1] was 27 ± 5 µM; in [2], 15 ± 1 µM; in [3] it was 10 ± 1 µM; in [4] it was 15 ± 1 µM; in [5] it was 15 ± 2 µM; in test [6], 18 ± 1 µM.
`COc1ccc(/C=C\c2cccc(NC(=O)Nc3cccc(OC)c3)c2)cc1` [Compound 18]: the 50% inhibitory concentration (IC50) came to 16 ± 3 µM in [1]; 19 ± 2 µM in test [2]; 4.3 ± 0.3 µM in test [3]; 17 ± 4 µM in test [4]; 24 ± 5 µM in [5]; 23 ± 8 µM in test [6].
For `COc1ccc(/C=C\c2cccc(NC(=O)Nc3ccc(OC)cc3)c2)cc1` [Compound 19], the entries for the “c-Myc (%) relative expression” value in the test with c-Myc [7] and in the test with c-Myc [10] were 79 ± 10% and 47 ± 8%, respectively. Further, the “PD-L1 (%) relative expression” value was 98 ± 10% on PD-L1 [8] and 36 ± 9% on PD-L1 [12]. Also, the “Membrane VEGFR-2 (%)” value at VEGFR-2 [9] is reported as 98 ± 8%; at VEGFR-2 [11], 88 ± 14%. Moreover, the “Total VEGFR-2 (%)” value on VEGFR-2 [9] is on record as 99 ± 16%; at VEGFR-2 [11], 97 ± 7%. The IC50 came out at 10 ± 1 µM in test [1]; 8 ± 3 µM in [2]; 11 ± 1 µM in test [3]; 14 ± 3 µM in test [4]; 5 ± 2 µM in test [5]; 12 ± 2 µM in test [6].
`COc1ccc(/C=C/c2cccc(NC(=O)Nc3ccccc3)c2)cc1` [Compound 20]: the half-maximal inhibitory concentration (IC50) was 15 ± 2 µM in test [1]; 2.3 ± 0.9 µM in test [2]; 4 ± 1 µM in [3]; 2.5 ± 0.8 µM in [4]; 42 ± 8 µM in test [5]; 1.6 ± 0.3 µM in test [6].
Turning to `COc1ccc(/C=C/c2cccc(NC(=O)Nc3ccccc3Br)c2)cc1` [Compound 21], the IC50 came to 2 ± 0.2 µM in [1]; 1.6 ± 0.3 µM in [2]; 1.9 ± 0.4 µM in test [3]; 1.6 ± 0.2 µM in test [4]; 1.7 ± 0.4 µM in test [5]; 3 ± 1 µM in test [6].
In the case of `COc1ccc(/C=C/c2cccc(NC(=O)Nc3cccc(Br)c3)c2)cc1` [Compound 22], the IC50 in test [1] worked out at 0.7 ± 0.3 µM; in test [2] it was 0.6 ± 0.3 µM; in [3], 1.1 ± 0.2 µM; in [4] it was 0.5 ± 0.2 µM; in test [5], 1.5 ± 0.3 µM; in test [6], 4 ± 3 µM.
Consider `COc1ccc(/C=C/c2cccc(NC(=O)Nc3ccccc3OC)c2)cc1` [Compound 24], for which the 50% inhibitory concentration (IC50) came out at 3.5 ± 0.8 µM in [1]; 3.6 ± 0.6 µM in test [2]; 7.2 ± 0.6 µM in [3]; 11 ± 4 µM in [4]; 9 ± 4 µM in test [5]; 11 ± 5 µM in test [6].
Consider `COc1ccc(/C=C/c2cccc(NC(=O)Nc3cccc(OC)c3)c2)cc1` [Compound 25], for which the “c-Myc (%) relative expression” value amounted to 68 ± 9% in the test on c-Myc [7] and 74 ± 11% in the test with c-Myc [10]. Besides, the “PD-L1 (%) relative expression” value is 59 ± 8% at PD-L1 [8] and 69 ± 11% at PD-L1 [12]. Moreover, the “Membrane VEGFR-2 (%)” value on VEGFR-2 [9] turned out to be 59 ± 8%; at VEGFR-2 [11] it was 99 ± 11%. The “Total VEGFR-2 (%)” value on VEGFR-2 [9] amounted to 96 ± 9%; on VEGFR-2 [11], 94 ± 7%. Also, the IC50 in test [1] came out at 4 ± 2 µM; in test [2] it was 1.1 ± 0.2 µM; in test [3], 4.3 ± 0.4 µM; in [4], 1.3 ± 0.5 µM; in [5], 7 ± 0.5 µM; in test [6] it was 2.2 ± 0.7 µM.
In the case of `COc1ccc(CCc2cccc(NC(=O)Nc3ccccc3)c2)cc1` [Compound 27], the IC50 in test [1] is 12.5 ± 0.2 µM; in test [2] it was 12.8 ± 0.9 µM; in [3], 9 ± 4 µM; in test [4], 9.6 ± 0.6 µM; in [5], 10 ± 2 µM; in test [6] it was 12 ± 5 µM.
`COc1ccc(CCc2cccc(NC(=O)Nc3ccccc3Br)c2)cc1` [Compound 28]: the half-inhibitory concentration (IC50) came out at 1.7 ± 0.2 µM in test [1]; 5 ± 4 µM in test [2]; 5 ± 3 µM in test [3]; 7.9 ± 0.5 µM in test [4]; 4 ± 3 µM in test [5]; 7 ± 4 µM in [6].
Turning to `COc1ccc(CCc2cccc(NC(=O)Nc3cccc(Br)c3)c2)cc1` [Compound 29], the IC50 in test [1] stood at 7.2 ± 0.4 µM; in test [2] it was 10 ± 4 µM; in test [3] it was 3.8 ± 0.3 µM; in test [4] it was 11 ± 2 µM; in [5], 10.7 ± 0.5 µM; in test [6], 13 ± 3 µM.
`COc1ccc(CCc2cccc(NC(=O)Nc3ccc(Br)cc3)c2)cc1` [Compound 30]: the IC50 in [1] stood at 1.3 ± 0.5 µM; in test [2], 4 ± 2 µM; in test [3], 1.3 ± 0.1 µM; in test [4] it was 4.9 ± 0.8 µM; in [5], 3.7 ± 0.3 µM; in test [6], 11 ± 5 µM.
On to `COc1ccc(CCc2cccc(NC(=O)Nc3ccccc3OC)c2)cc1` [Compound 31], for which the IC50 in test [1] was 13.8 ± 0.8 µM; in test [2] it was 10 ± 5 µM; in test [3], > 100 µM; in test [4] it was 57 ± 6 µM; in [5], 24 ± 2 µM; in [6] it was 24 ± 5 µM.
